Results on seven compounds are retold here after EP4635500A1, “THERAPEUTIC AGENT FOR BACTERIAL INFECTION” (Sumitomo Pharma Co., Ltd., priority 2022, dated 2024).

One assay has as its target OXA-65 (Acinetobacter baumannii, UniProt Q58XD3). Briefly: Ki,app against β-lactamase (Example 1, Table 1). Format: biochemical. The note with it: OXA-65, class D; 30 min preincubation; n.d.: too low inhibitor activity at 100 µmol/L. Here is the method:
(§1) After stirring, the resultants were preincubated for 30 minutes at 37°C. The reporter substrate solution was incubated at 37°C for 15 minutes or more, dispensed at 100 µL/well, and measured for a change in absorbance by a microplate reader at 37°C. For each measured concentration of the positive control and the inhibitor, an initial rate (µmol/L/sec) was determined from a time to be analyzed and a change in product amount. […] Ki,app for each inhibitor concentration was calculated from the slope, the inhibitor concentration, an enzyme concentration, Km, and kcat using Expression 2. If the initial rate was determined at two or more concentrations for each inhibitor and a plurality of Ki,app could be obtained, an average value was used as the Ki,app for the inhibitor. t−tc = Km /Vmax x ([Inhibitor]/Ki,app)x Ln[S]0 /[S] [formula] Ki,app = [Inhibitor]x Km /(kcatx[Enzyme])x 1/slope [formula]
(§2) The experiment was performed in duplicate.

The next assay concerns the target OXA-66 (Acinetobacter baumannii, UniProt Q58XD2). The experiment in a line: Ki,app against β-lactamase (Example 1, Table 1). Format: biochemical. The note with it: OXA-66, class D; 30 min preincubation; n.d.: too low inhibitor activity at 100 µmol/L. Here is the method:
as §1, §2

In another assay the target is OXA-72 (Acinetobacter baumannii, UniProt Q5XQU0). Briefly: Ki,app against β-lactamase (Example 1, Table 1). Format: biochemical. The note with it: OXA-72, class D; 30 min preincubation; n.d.: too low inhibitor activity at 100 µmol/L; *: value from one of three experiments. Here is the method: as §1, §2
The target in another assay is KPC-2 (Klebsiella pneumoniae, UniProt Q9F663). The experiment in a line: Ki,app against β-lactamase (Example 1, Table 1). Format: biochemical. Here is the method:
as §1, §2

The next assay concerns the target OXA-23 (Acinetobacter baumannii, UniProt Q9L4P2). Briefly: Ki,app against β-lactamase (Example 1, Table 1). Format: biochemical. Here is the method:
as §1, §2

The next assay addresses OXA-48 (Klebsiella pneumoniae, UniProt Q6XEC0). Briefly: Ki,app against β-lactamase (Example 1, Table 1). Format: biochemical. Here is the method: as §1, §2
The next assay deals with KPC-38 (Klebsiella pneumoniae, UniProt Q9F663). Format: biochemical. The note with it: read-out: Ki app; KPC-38, class A; 30 min preincubation; n.d.: too low inhibitor activity at 100 µmol/L. Here is the method:
as §1, §2

Another assay addresses KPC-3 (Klebsiella pneumoniae, UniProt Q9F663, H272Y). Briefly: biochemical. Format: biochemical. Here is the method:
as §1, §2

In assay [1] the test system is anaerobic bacteria. The experiment in a line: microbe, parasite or virus in culture. Format: cell-based.
For assay [2], the system named is anaerobic bacteria. The note with it: cited from earlier work.
In another assay the target is OXA-24 (Acinetobacter baumannii, UniProt Q8RLA6). Briefly: Ki,app against β-lactamase (Example 1, Table 1). The note with it: OXA-24, class D; 30 min preincubation; n.d.: too low inhibitor activity at 100 µmol/L. Format: biochemical. Here is the method: as §1, §2
In the next assay the target is KPC-6 (Klebsiella pneumoniae, UniProt Q9F663, V239G). Briefly: biochemical. Here is the method:
as §1, §2

In the next assay the target is KPC-8 (Klebsiella pneumoniae, UniProt Q9F663, H272Y/V239G). The experiment in a line: biochemical. Here is the method: as §1, §2
A further assay has as its target CTX-M-14 (Escherichia coli, UniProt Q9L5C7). The experiment in a line: Ki,app against β-lactamase (Example 1, Table 1). The note with it: CTX-M-14, class A; 30 min preincubation; n.d.: too low inhibitor activity at 100 µmol/L. Format: biochemical. Here is the method:
as §1, §2

The target in another assay is CTX-M-27 (Escherichia coli, UniProt Q840M4). The experiment in a line: Ki,app against β-lactamase (Example 1, Table 1). The note with it: CTX-M-27, class A; 30 min preincubation; n.d.: too low inhibitor activity at 100 µmol/L. Format: biochemical. Here is the method:
as §1, §2

For another assay, the target named is SHV-12 (Klebsiella pneumoniae, UniProt P0A3M1, L31Q). Briefly: Ki,app against β-lactamase (Example 1, Table 1). The note with it: SHV-12, class A; 30 min preincubation; n.d.: too low inhibitor activity at 100 µmol/L. Format: biochemical. Here is the method: as §1, §2
The next assay has as its target PDC-11 (Pseudomonas aeruginosa, UniProt P24735, form not given, species not given). Format: biochemical. The note with it: PDC-11, class C; 30 min preincubation; n.d.: too low inhibitor activity at 100 µmol/L; read-out: Ki app. Here is the method:
as §1, §2

The target of a further assay is KPC-31 (Klebsiella pneumoniae, UniProt Q9F663, D178Y/H272Y). Briefly: biochemical. Here is the method:
as §1, §2

Another assay concerns the target KPC-33 (Klebsiella pneumoniae, UniProt Q9F663, D178Y). The experiment in a line: biochemical. Here is the method: as §1, §2
Where [3] appears, read: KPC-2, class A, 30 min preincubation, n.d.: too low inhibitor activity at 100 µmol/L, read-out: Ki app.
The mark [4] stands for this setting: KPC-3, class A, 30 min preincubation, n.d.: too low inhibitor activity at 100 µmol/L, read-out: Ki app.

Values after ≈ are worked out from the molar mass of the structure shown. Read-outs that look alike come from different tables or passages of the source. Marks after values point to notes of the source that are not given here.

Turning to `NC(=O)[C@@H]1CC[C@@H]2CN1C(=O)N2OS(=O)(=O)O` [Avibactam, avibactam], the Ki at OXA-65 stood at 5.9 ± 1.05 µM; at OXA-66, 7.35 ± 0.963 µM; at OXA-72, 691 ± 63.8 nM.
On to `O=C(O)[C@H]1/C(=C/CO)O[C@@H]2CC(=O)N21` [Clavulanate, clavulanate], for which the Ki on KPC-2 stood at 76.7 ± 38.3 nM; at OXA-23, 394 ± 169 nM; at OXA-48 (OXA-48, class D, 30 min preincubation, n.d.: too low inhibitor activity at 100 µmol/L, read-out: Ki app), 103 ± 36.5 nM; at KPC-38, 78.2 ± 20.5 nM; on KPC-3, 128 ± 53.2 nM.
In the case of `Cc1ncc([N+](=O)[O-])n1CCO` [MNZ], the MIC in the assay with anaerobic bacteria [1] (ATCC29328, Finegoldia magna ATCC 29328, read-out: MIC) amounted to 2 µg/mL (≈ 11.7 µM); in the assay with anaerobic bacteria [1] (ATCC43055, Eggerthella lenta ATCC 43055, read-out: MIC), 1 µg/mL (≈ 5.84 µM); in the assay on anaerobic bacteria [1] (ATCC43255, Clostridioides difficile ATCC 43255, read-out: MIC), 1 µg/mL (≈ 5.84 µM); in the assay with anaerobic bacteria [1] (ATCCBAA1803, Clostridioides difficile ATCC BAA-1803, read-out: MIC) it was 2 µg/mL (≈ 11.7 µM); in the assay with anaerobic bacteria [1] (ATCCBAA1870, Clostridioides difficile ATCC BAA-1870, read-out: MIC), 1 µg/mL (≈ 5.84 µM); against anaerobic bacteria [1] (Bacteroides fragilis, ATCC25285), 1 µg/mL (≈ 5.84 µM). The MIC against anaerobic bacteria [1] (Bacteroides ovatus) is 1 µg/mL (≈ 5.84 µM); in the assay on anaerobic bacteria [1] (Bacteroides thetaiotaomicron KUB2984, read-out: MIC) it was 1 µg/mL (≈ 5.84 µM); in the assay on anaerobic bacteria [1] (Bacteroides thetaiotaomicron, ATCC29741), 2 µg/mL (≈ 11.7 µM); in the assay with anaerobic bacteria [1] (Clostridium perfringens, ATCC13124) it was 2 µg/mL (≈ 11.7 µM); in the assay with anaerobic bacteria [1] (Cutibacterium acnes, ATCC11827), above 64 µg/mL; in the assay with anaerobic bacteria [1] (Fusobacterium nucleatum, ATCC25586), at most 0.125 µg/mL. The MIC against anaerobic bacteria [1] (Fusobacterium varium, ATCC27725) is 0.5 µg/mL (≈ 2.92 µM); in the assay on anaerobic bacteria [1] (Lancefieldella rimae), 1 µg/mL (≈ 5.84 µM); in the assay on anaerobic bacteria [1] (Olsenella uli) it was 4 µg/mL (≈ 23.4 µM); in the assay with anaerobic bacteria [1] (Parvimonas micra KUB3000, read-out: MIC), 0.5 µg/mL (≈ 2.92 µM); with anaerobic bacteria [1] (Peptoniphilus asaccharolyticus, ATCC14963), 1 µg/mL (≈ 5.84 µM); against anaerobic bacteria [1] (Peptostreptococcus anaerobius, ATCC27337), 0.5 µg/mL (≈ 2.92 µM). In addition, the MIC against anaerobic bacteria [1] (Prevotella histicola) was 2 µg/mL (≈ 11.7 µM); in the assay with anaerobic bacteria [1] (Prevotella intermedia), 1 µg/mL (≈ 5.84 µM); against anaerobic bacteria [1] (Prevotella melaninogenica), 1 µg/mL (≈ 5.84 µM); against anaerobic bacteria [1] (Schaalia odontolytica, ATCC17929) it was above 64 µg/mL; with anaerobic bacteria [1] (Segatella buccae) it was 2 µg/mL (≈ 11.7 µM). The “Acceptable MIC range of quality control (QC) strain” value in the assay on anaerobic bacteria [2] (Bacteroides fragilis ATCC 25285 (QC strain)) was 1 (0.25 to 1)* µg/mL; in the assay on anaerobic bacteria [2] (Bacteroides thetaiotaomicron ATCC 29741 (QC strain)), 2 (0.5 to 2)* µg/mL.
Regarding `O=C(NC1CCNCC1)[C@@H]1CC[C@@H]2CN1C(=O)N2OS(=O)(=O)O` [Relebactam, relebactam], the Ki on OXA-23 (OXA-23, class D, 30 min preincubation, n.d.: too low inhibitor activity at 100 µmol/L, read-out: Ki app) came to 5640 ± 522 nM.
For `CC1(C)[C@H](C(=O)O)N2C(=O)C[C@H]2S1(=O)=O` [Sulbactam, sulbactam], the Ki on KPC-2 is 420 ± 99.2 nM; at OXA-23, 681 ± 74.3 nM; at OXA-48, 264 ± 116 nM; at KPC-38, 405 ± 99.6 nM; on KPC-3, 674 ± 239 nM.
Turning to `C[C@]1(Cn2ccnn2)[C@H](C(=O)O)N2C(=O)C[C@H]2S1(=O)=O` [Tazobactam, tazobactam], the Ki on KPC-2 (setting [3]) came to 159 nM; at OXA-24 it was 100 ± 45.6 nM; at KPC-38, 112 ± 14.5 nM; on KPC-3 (setting [4]), 270 ± 80.8 nM; at KPC-6 it was 79.9 ± 16.5 nM; on KPC-8, 52 ± 11.8 nM.
As to `O=C(O)C[C@@H]1CC[C@H](NC(=O)Cc2cccs2)B(O)O1` [Vaborbactam, vaborbactam], the Ki was 392 ± 20.3 nM at CTX-M-14; 351 ± 28.7 nM at CTX-M-27; 63.7 nM at KPC-2 (setting [3]); 755 ± 103 nM at SHV-12; 48.3 nM on KPC-38; 3.86 ± 0.163 µM on PDC-11. The Ki on KPC-3 (setting [4]) amounted to 88.3 ± 30.3 nM; on KPC-31, 13.3 ± 8.59 µM; on KPC-33 it was 4.6 ± 0.437 µM; at KPC-6, 109 ± 21.7 nM; at KPC-8, 114 ± 22.1 nM.
